Source: ChEMBL document CHEMBL3885861, “Open TG-GATES”

Species: Rattus norvegicus
Assay: Open TG-GATES - Regimen: Daily Repeat
Format: toxicity, organism-based, Sprague-Dawley
Set-up: regimen Daily Repeat, gender Male, age 6 weeks
Details: in vivo, po, route gavage; for KIDNEY_L / KIDNEY_R / KIDNEY_TOTAL: tissue Kidney; for ALP / ALT / AST / BUN / CRE / Ca / Cl / DBIL / GLC / IP / K / LDH / Na / PL / RALB / TBIL / TC / TP / gamma-GTP / TG: tissue Plasma
[1] = 45 mg/kg, 72 h, dose level Low, time 3 day
[2] = 45 mg/kg, 72 h, tissue Blood, dose level Low, time 3 day
[3] = 45 mg/kg, […], dose level Low, time 7 day
[4] = 45 mg/kg, […], dose level Low, time 14 day
[5] = 45 mg/kg, […], dose level Low, time 28 day
[6] = 45 mg/kg, […], tissue Blood, dose level Low, time 7 day
[7] = 45 mg/kg, […], tissue Blood, dose level Low, time 14 day
[8] = 45 mg/kg, […], tissue Blood, dose level Low, time 28 day

Structure (SMILES): CC(=O)Oc1ccccc1C(=O)O [ASPIRIN]
- TERMINAL_BW [1]: 237.2 g
- APTT [2]: 19.4 s
- Bas [2]: 0%
- Eos [2]: 0.8%
- Fbg [2]: 214 mg/dL
- Hb [2]: 13.7 g/dL
- Ht [2]: 40.3%
- Lym [2]: 81%
- MCH [2]: 21.4 pg
- MCHC [2]: 33.9%
- MCV [2]: 62.9 fL
- Mono [2]: 2.8%
- Neu [2]: 13.6%
- Plat [2]: 113.2 x10_4/uL
- RBC [2]: 641.2 x10_4/ul
- Ret [2]: 5.8%
- WBC [2]: 103.1 x10_2/uL
- KIDNEY_L [1]: 1.1 g
- KIDNEY_R [1]: 1.1 g
- KIDNEY_TOTAL [1]: 2.2 g
- ALP [1]: 890.4 IU/L
- ALT [1]: 45 IU/L
- AST [1]: 86.4 IU/L
- BUN [1]: 13.8 mg/dL
- CRE [1]: 0.4 mg/dL
- Ca [1]: 10.7 mg/dL
- Cl [1]: 102.2 meq/L
- DBIL [1]: 0.09 mg/dL
- GLC [1]: 205.2 mg/dL
- IP [1]: 6.8 mg/dL
- K [1]: 3.8 meq/L
- LDH [1]: 315.2 IU/L
- Na [1]: 140.4 meq/L
- PL [1]: 146.2 mg/dL
- RALB [1]: 3.5 g/dL
- TBIL [1]: 0.1 mg/dL
- TC [1]: 71 mg/dL
- TP [1]: 5.7 g/dL
- gamma-GTP [1]: 0.6 IU/L
- TERMINAL_BW [3]: 270.5 g
- TERMINAL_BW [4]: 315.9 g
- TERMINAL_BW [5]: 394.7 g
- APTT [6]: 22.5 s
- Bas [6]: 0%
- Eos [6]: 1%
- Fbg [6]: 205.8 mg/dL
- Hb [6]: 13.5 g/dL
- Ht [6]: 39.9%
- Lym [6]: 84.2%
- MCH [6]: 20.8 pg
- MCHC [6]: 33.9%
- MCV [6]: 61.4 fL
- Mono [6]: 2.2%
- Neu [6]: 12.2%
- PT [6]: 12.6 s
- Plat [6]: 120.9 x10_4/uL
- RBC [6]: 650.4 x10_4/ul
- Ret [6]: 5.3%
- WBC [6]: 120.2 x10_2/uL
- APTT [7]: 19.9 s
- Bas [7]: 0%
- Eos [7]: 1.2%
- Fbg [7]: 220.6 mg/dL
- Hb [7]: 14.7 g/dL
- Ht [7]: 42.3%
- Lym [7]: 77.2%
- MCH [7]: 20.9 pg
- MCHC [7]: 34.9%
- MCV [7]: 59.8 fL
- Mono [7]: 2%
- Neu [7]: 18.2%
- Plat [7]: 128.5 x10_4/uL
- RBC [7]: 707.4 x10_4/ul
- Ret [7]: 3.6%
- WBC [7]: 138.1 x10_2/uL
- APTT [8]: 20.3 s
- Bas [8]: 0%
- Eos [8]: 1.4%
- Fbg [8]: 207.2 mg/dL
- Hb [8]: 15.4 g/dL
- Ht [8]: 44.6%
- Lym [8]: 80.4%
- MCH [8]: 19.2 pg
- MCHC [8]: 34.4%
- MCV [8]: 55.7 fL
- Mono [8]: 2.4%
- Neu [8]: 14.2%
- Plat [8]: 101 x10_4/uL
- RBC [8]: 801 x10_4/ul
- Ret [8]: 2%
- WBC [8]: 104.5 x10_2/uL
- KIDNEY_L [3]: 1.2 g
- KIDNEY_R [3]: 1.2 g
- KIDNEY_TOTAL [3]: 2.3 g
- KIDNEY_L [4]: 1.3 g
- KIDNEY_R [4]: 1.3 g
- KIDNEY_TOTAL [4]: 2.5 g
- KIDNEY_L [5]: 1.5 g
- KIDNEY_R [5]: 1.5 g
- KIDNEY_TOTAL [5]: 3 g
- ALP [3]: 901.6 IU/L
- ALT [3]: 27.8 IU/L
- AST [3]: 62.2 IU/L
- BUN [3]: 16 mg/dL
- CRE [3]: 0.4 mg/dL
- Ca [3]: 10.6 mg/dL
- Cl [3]: 102.6 meq/L
- DBIL [3]: 0.096 mg/dL
- GLC [3]: 219 mg/dL
- IP [3]: 7.3 mg/dL
- K [3]: 4.1 meq/L
- LDH [3]: 213.4 IU/L
- Na [3]: 140.4 meq/L
- PL [3]: 140.6 mg/dL
- RALB [3]: 3.2 g/dL
- TBIL [3]: 0.1 mg/dL
- TC [3]: 73.4 mg/dL
- TG [3]: 107.4 mg/dL
- TP [3]: 5.5 g/dL
- gamma-GTP [3]: 0.6 IU/L
- ALP [4]: 902.4 IU/L
- ALT [4]: 40.6 IU/L
- AST [4]: 76 IU/L
- BUN [4]: 16 mg/dL
- CRE [4]: 0.4 mg/dL
- Ca [4]: 10.6 mg/dL
- Cl [4]: 102.8 meq/L
- DBIL [4]: 0.1 mg/dL
- GLC [4]: 189.8 mg/dL
- IP [4]: 7.1 mg/dL
- K [4]: 4.2 meq/L
- LDH [4]: 244 IU/L
- Na [4]: 140.8 meq/L
- PL [4]: 153 mg/dL
- RALB [4]: 3.5 g/dL
- TBIL [4]: 0.1 mg/dL
- TC [4]: 71.8 mg/dL
- TG [4]: 133.6 mg/dL
- TP [4]: 5.8 g/dL
- gamma-GTP [4]: 0.6 IU/L
- ALP [5]: 733.8 IU/L
- ALT [5]: 33 IU/L
- AST [5]: 67.2 IU/L
- BUN [5]: 17 mg/dL
- CRE [5]: 0.5 mg/dL
- Ca [5]: 10.3 mg/dL
- Cl [5]: 102.6 meq/L
- DBIL [5]: 0.094 mg/dL
- GLC [5]: 232.8 mg/dL
- IP [5]: 6.7 mg/dL
- K [5]: 3.9 meq/L
- LDH [5]: 186.2 IU/L
- Na [5]: 141.2 meq/L
- PL [5]: 143.2 mg/dL
- RALB [5]: 3.4 g/dL
- TBIL [5]: 0.2 mg/dL
- TC [5]: 68.6 mg/dL
- TG [5]: 125 mg/dL
- TP [5]: 6.1 g/dL
- gamma-GTP [5]: 0.6 IU/L
- TERMINAL_BW (150 mg/kg, 72 h, dose level Middle, time 3 day): 239.9 g
